Assay results reported in US20100184807A1, “Methods to inhibit tumor cell growth by using proton pump inhibitors” (Bio-Quant, Inc., priority 2008, published 2010).

What was measured:
[1] = test system: JR, HepG2, SR Liquid Leukemia, RS1184 B Lymphoma, and G401 rhabdoid tumor cell lines; assay: Xenograft nude mouse model, all tumor lines; type: in vivo; settings: subcutaneous xenografts
Method: (§1) JR (rhabdomyosarcoma), HepG2 (liver carcinoma), SR Liquid Leukemia (leukemia), RSI 184 B Lymphoma (lymphoma), and G401 rhabdoid (kidney) cancer cells for use in a xenograft mouse model were collected from JR, HepG2, SR Liquid Leukemia, RS1184 B Lymphoma, and G401 rhabdoid tumor cell lines and injected at 5×10^6 cells per nude mouse in a volume of 100 μl subcutaneously. The animals were examined three times weekly to determine the progression of the tumors and determine body weight. Dosing started when tumors reached the ˜75-150 mm^3 size. Animals were randomized and distributed in groups in such a way that mean tumor weights in all groups were within 15% of the mean tumor weight in Group 1 (Control—vehicle group). Upon reaching the ˜75-150 mm^3 target size an effective amount of lansoprazole was administered to the mice in a suspension of PEG300 at a concentration of 100 mg/kg.

U251 (brain cancer) = assay: MTT tumor cell growth assay; type: cell-based; settings: U251 cells, lansoprazole 1-100 μM, 48 hours
Method: (§2) In one study, adherent cells were plated approximately 16-24 hours before the day of the experiment in 180 μl growth media. On the day of the experiment, the plated adherent cells were analyzed and counted and suspension cells were plated in 180 μl growth media. 10× lansoprazole compounds and vehicle was prepared. The 10× lansoprazole compounds were prepared by diluting lansoprazole to final concentrations of 100 μM, 30 μM, 10 μM, 3 μM, and 1 μM. A vehicle was prepared by preparing a solution of PBS, equivalent to the volume used for 10 μM lansoprazole wherein the 1× solution constitutes ˜0.06% PBS. 10 μl of the various 10× lansoprazole solutions and the vehicle were added to the cells. The cells were incubated at 37° C., 5% CO2 for 48 hours. The media was then aspirated. The cell suspension was then spun at 1500 RPM for 10 minutes. The media was slowly removed. 200 μl of MTT solution was added to each well with a concentration of 0.863 mg/ml MTT in the growth media. The cells were incubated at 37° C., 5% CO2 for 4 hours and the medium is then aspirated. The plate containing the cell suspension was then spun at 1500 RPM for 10 minutes. The media was slowly removed using a multichannel pipettor. 100 μl of DMSO was then added to each well. The cells were incubated at 37° C., 5% CO2 for 5 minutes and the absorbance was obtained at 560 nm using a Dynex Opsys MR plate reader.

SF-539 (brain cancer) = assay: MTT tumor cell growth assay; type: cell-based; settings: SF-539 cells, lansoprazole 1-100 μM, 48 hours
Method: as §2

SNB19 (brain cancer) = assay: MTT tumor cell growth assay; type: cell-based; settings: SNB19 cells, lansoprazole 1-100 μM, 48 hours
Method: as §2

SF295 (brain cancer) = assay: MTT tumor cell growth assay; type: cell-based; settings: SF295 cells, lansoprazole 1-100 μM, 48 hours
Method: as §2

HepG2 (liver carcinoma) = assay: Xenograft nude mouse model, HepG2; type: in vivo; settings: nude mice, 100 mg/kg in PEG300
Method: as §1

Compound: Cc1c(OCC(F)(F)F)ccnc1C[S+]([O-])c1nc2ccccc2[nH]1 (stereo not shown) [lansoprazole]
- life span of the population ([1]; nude mice, 100 mg/kg in PEG300): extended life span
- tumor growth in mice ([1]; 100 mg/kg in PEG300, FIGS. 4A-4C and 5A-5C): effectively reduced tumor growth
- tumor cell growth reduction (U251 (brain cancer)): significant tumor cell growth reduction
- tumor cell growth reduction (SF-539 (brain cancer)): significant tumor cell growth reduction
- tumor cell growth reduction (SNB19 (brain cancer)): significant tumor cell growth reduction
- tumor cell growth reduction (SF295 (brain cancer)): significant tumor cell growth reduction
- treating tumor cells derived from tumor cell line (HepG2 (liver carcinoma)): especially effective
